# According to patent publication US12435083B2, “Cyclopropyl-(hetero)aryl-substituted ethylsulphonyl-pyridine derivatives” (BOEHRINGER INGELHEIM VETMEDICA GMBH, priority 2021, dated 2025):
# Read-outs that look alike come from different tables or passages of the source.
# Legend:
# [1] = system: adult Ctenocephalides felis fleas; test: Ingestion activity (flea membrane feeding, blood feeding) against adult Ctenocephalides felis; conditions: for activity against fleas (flea membrane feeding and flea contact assays), in words: in vitro profiling
# From the text: Example 6: Screening Method to Test Ingestion Activity of Compounds of Formula (I) Against Adult Ctenocephalides felis
# (§1) The four structurally closest prior art compounds (A), (B), (C) and (D) specifically excluded from the scope of formula (I) were characterized vis-a-vis selected compounds of formula (I) with regard to their potency in in vitro screening assays against fleas (Ctenocehalides felis) and ticks (Rhipicephalus sanguineus).
# It is important to note that compounds that show better activity versus ticks are more desirable in the animal health field, as ticks are more difficult to control than fleas. Noteworthy, in particular with regard to fleas the illustrated comparative data are based on a flea membrane feeding (ingestion, blood feeding) assay. Data from this assay are more relevant for compounds intended to be delivered systemically to an animal via oral or injectable routes. Membrane feeding assays differ to primary screening laboratory contact assays in that the latter only measure the effect of the direct contact of selected compounds on the parasite, such as the flea or the tick. The information derived from laboratory contact assays is strictly limited to the ability of the compound to be absorbed through the parasite surface and to reach its molecular target, and no information can be gleaned from these contact assays as to whether the compound would also be active when presented orally to the ectoparasite itself in a blood meal, such as with the membrane feeding assay, and certainly not when administered orally to an animal host (e.g. “in vivo”) with subsequent exposure to the ectoparasite.
# (§2) However, as explained above, spectrum of action against this range of species (i.e. fleas and ticks) is a desirable property of ectoparasiticides for veterinary use. In the following table 1 comparative experimental data of the in vitro assays are shown regarding flea membrane feeding (ingestion, blood feeding) activity against Ctenocephalides felis and contact activity against Rhipicephalus sanguineus.
# [2] = system: adult Rhipicephalus sanguineus ticks; test: Contact activity against adult Rhipicephalus sanguineus (coated vial, mortality at 48 h); conditions: for activity against ticks (tick contact assay), in words: in vitro profiling
# Procedure: Example 5: Screening Method to Test Contact Activity of Compounds of Formula (I) Against Adult Rhipicephalus sanguineus
# Compounds of formula (I) formulated in 100% DMSO were diluted in a solution containing acetone and Triton X-100 (0.02%). The resulting formulation was used to coat the inner walls of glass scintillation vials and the filter paper covering the cap of the vial. Once dried, ten adult R. sanguineus ticks were added to the vials. The vials were incubated at 24° C., 95% relative humidity, and 12 hours of light/12 hours of dark until evaluation. Ticks were visually evaluated for mortality at 48 hours post-treatment. Compound efficacy at a given dose is expressed as percentage mortality. A dose response series was implemented to determine EC50 values.
# as §1, §2
# [3] = system: adult Ctenocephalides felis fleas; test: Contact activity against adult Ctenocephalides felis (treated surface, motility by machine vision, 24 h); conditions: treated surface, 24h, read-out: EC80 (% motility reduction, adult C. felis, contact)
# From the text: Example 7: Screening Method to Test Contact Activity of Compounds of Formula (I) Against Adult Ctenocephalides felis
# Plutella xylostella = test: Insecticidal test on Plutella xylostella (Chinese cabbage seedling dip); conditions: 144 h, 500 ppm, seedling dip, 6 days after dip treatment, read-out: activity level (corrected mortality rate), Plutella xylostella
# Procedure: Example 12: Insecticidal Test on Plutella xylostella
# The compounds of formula (I) of the present invention or salts thereof were separately dispersed in water and diluted to 500 ppm. Ten adults of Plutella xylostella were released onto Chinese cabbage seedlings and allowed to lay eggs thereon. 2 days after the release of the adults, the seedling was dipped in the dispersion for about 30 seconds. After air dried, the seedling was kept in a room at 25° C. 6 days after the dip treatment, the numbers of the dead and alive insects were counted. The corrected mortality rate was calculated according to the following formula and the insecticidal activity was evaluated according to the following criteria. Corrected mortality rate (%)=100×(Survival rate in an untreated plot−Survival rate in a treated plot)/Survival rate in an untreated plot • A: the corrected mortality rate is 100% • B: the corrected mortality rate is 90 to 99% • C: the corrected mortality rate is 80 to 89% • D: the corrected mortality rate is 50 to 79%
# [4] = Ctenocephalides felis, 24 h, flea membrane feeding (ingestion, blood feeding) assay, EC80, read-out: C. felis membrane feeding (ingestion/blood feeding) activity EC80
# [5] = Rhipicephalus sanguineus, contact assay, >100 μM = not active at the top concentration, read-out: R. sanguineus contact activity EC50
# [6] = Ctenocephalides felis, bovine blood, 24h post treatment, read-out: EC80 (% motility reduction, adult C. felis, ingestion via membrane feeding)
# [7] = Rhipicephalus sanguineus, 48 hours post-treatment, coated vial, read-out: EC50 (percentage mortality, adult R. sanguineus, contact)
# [8] = flea membrane feeding (ingestion, blood feeding) assay, EC80, read-out: C. felis membrane feeding (ingestion/blood feeding) activity EC80
# [9] = contact assay, >100 μM = not active at the top concentration, read-out: R. sanguineus contact activity EC50
# [10] = flea membrane feeding (ingestion, blood feeding) assay, EC80
smiles,measurement,setting,value
"CCS(=O)(=O)c1cc(-c2ccc(C3(C#N)CC3)cc2)cnc1-n1ncc2ccc(C(F)(F)F)cc2c1=O [(A), reference compound]",EC80,[1]; [4],> 10 µM
same,"activity against fleas (flea membrane feeding and flea contact assays), in words",[1]; Ctenocephalides felis,some activity
same,"activity against ticks (tick contact assay), in words",[2]; Rhipicephalus sanguineus,no activity
same,EC50,[2]; [5],> 100 µM
"CCS(=O)(=O)c1cc(-c2ccc(C3(C#N)CC3)cc2)cnc1-n1nc2ccc(C(F)(F)F)cn2c1=O [(B), reference compound]",EC80,[1]; [4],> 10 µM
same,"activity against fleas (flea membrane feeding and flea contact assays), in words",[1]; Ctenocephalides felis,some activity
same,"activity against ticks (tick contact assay), in words",[2]; Rhipicephalus sanguineus,no activity
same,EC50,[2]; [5],> 100 µM
"CCS(=O)(=O)c1cc(-c2nc(C)cc(C3CC3)n2)cnc1-c1nc2cc(C(F)(F)F)ncc2n1C [(C), reference compound]",EC80,[1]; [4],> 10 µM
same,"activity against fleas (flea membrane feeding and flea contact assays), in words",[1]; Ctenocephalides felis,some activity
same,"activity against ticks (tick contact assay), in words",[2]; Rhipicephalus sanguineus,no activity
same,EC50,[2]; [5],> 100 µM
"CCS(=O)(=O)c1cc(-c2ccc(C3CC3)cn2)cnc1-n1ncc(OCC(F)(F)C(F)(F)F)cc1=O [(D), reference compound]",EC80,[1]; [4],> 10 µM
same,"activity against fleas (flea membrane feeding and flea contact assays), in words",[1]; Ctenocephalides felis,some activity
same,"activity against ticks (tick contact assay), in words",[2]; Rhipicephalus sanguineus,no activity
same,EC50,[2]; [5],> 100 µM
"CCS(=O)(=O)c1cc(-c2cc(C3CC3)ccn2)cnc1-c1nc2cc3c(cc2n1C)OC(F)(F)O3 [Compound 14, 6-(4-cyclopropyl-5′-(ethylsulfonyl)-[2,3′-bipyridin]-6′-yl)-2,2-difluoro-5-methyl-5H-[1,3]dioxolo[4′,5′:4,5]benzo[1,2-d]imidazole]",EC80,[3],1 to 10 µM
"CCS(=O)(=O)c1cc(-c2ccc(C3CC3)cc2)cnc1-n1cc2ccc(C(F)(F)F)cc2n1 [Compound 46, 2-[5-(4-cyclopropylphenyl)-3-(ethanesulfonyl)pyridin-2-yl]-6-(trifluoromethyl)indazole]",EC80,[1]; [4],1 to 10 µM
same,EC80,[1]; [6],1 to 10 µM
same,EC50,[2]; [7],10 to 100 µM
same,EC50,[2]; [5],10 to 100 µM
"CCS(=O)(=O)c1cc(-c2ccc(C3CC3)cc2)cnc1-n1cc2ncc(C(F)(F)F)cc2n1 [Compound 48, 5-(4-cyclopropylphenyl)-3-(ethanesulfonyl)-2-[6-(trifluoromethyl)pyrazolo[4,3-b]pyridin-2-yl]pyrid-ine]",EC80,[3],1 to 10 µM
CCS(=O)(=O)c1cc(-c2ccc(C3CC3)cc2)cnc1-c1cc2n(C(F)F)cc(C(F)(F)F)cc-2n1 [Compound 97],mortality at 500 ppm,Plutella xylostella,100%
same,EC80,[1]; [4],< 1 µM
same,EC50,[2]; [5],10 to 100 µM
"CCS(=O)(=O)c1cc(-c2ccc(C3CC3)cc2)cnc1-c1ncc(OCC(F)(F)C(F)(F)F)c(=O)n1C [Compound 110, 2-[5-(4-cyclopropylphenyl)-3-(ethanesulfonyl)pyridin-2-yl]-3-methyl-5-(2,2,3,3,3-pentafluoropropoxy)pyrimidin-4-one]",EC80,[3],1 to 10 µM
"CCS(=O)(=O)c1cc(-c2ccc(C3(F)CC3)nc2)cnc1-c1nc2cc(C(F)(F)F)n(C3CC3)c(=O)c2n1C [Compound 176, 5-cyclopropyl-2-[5-(ethanesulfonyl)-6′-(1-fluorocyclopropyl)-[3,3′-bipyridin]-6-yl]-3-methyl-6-(trifluoromethyl)imidazo[4,5-c]pyridin-4-one]",EC80,[1]; [6],1 to 10 µM
same,EC50,[2]; [7],10 to 100 µM
"CCS(=O)(=O)c1cc(-c2ccc(C3CC3)cc2)cnc1-n1ncc2ncc(C(F)(F)C(F)(F)F)cc21 [Compound 191, 5-(4-cyclopropylphenyl)-3-(ethanesulfonyl)-2-[6-(1,1,2,2,2-pentafluoroethyl)-1H-pyrazolo[4,3-b]pyridin-1-yl]pyridine]",mortality at 500 ppm,Plutella xylostella,100%
"C=CCn1cc(C(F)(F)F)cc2nc(-c3ncc(-c4ccc(C5(C#N)CC5)cc4)cc3S(=O)(=O)CC)c(F)c1-2 [Compound 198, 1-{4-[5-(ethanesulfonyl)-6-[3-fluoro-4-(prop-2-en-1-yl)-6-(trifluoromethyl)pyrrolo[3,2-b]pyridin-2-yl]pyridin-3-yl]phenyl}cyclopropane-1-carbonitrile]",EC80,[1]; [6],1 to 10 µM
CCS(=O)(=O)c1cc(-c2ccc(C3CC3)cc2)cnc1-c1nc2cc(C(F)(F)F)cn(CC(F)F)c-2c1F [compound 12],EC80,[1]; [8],<1 µM
same,EC50,[2]; [9],10 to 100 µM
CCS(=O)(=O)c1cc(-c2ccc(C3(C#N)CC3)cc2)cnc1-c1nc2cc(C(F)(F)C(F)(F)F)cnc2n1C [compound 80],EC80,[1]; [8],<1 µM
same,EC50,[2]; [9],10 to 100 µM
CCS(=O)(=O)c1cc(-c2ccc(C3(C#N)CC3)cc2)cnc1-c1nc2cc(C(F)(F)F)n(C3CC3)c(=O)c2n1C [compound 88],C. felis membrane feeding (ingestion/blood feeding) activity EC80,[1]; [10],1 to 10 µM
same,EC50,[2]; [9],10 to 100 µM
CCS(=O)(=O)c1cc(-c2ccc(C3CC3)nc2)cnc1-c1nc2cc(C(F)(F)F)n(C3CC3)c(=O)c2n1C [compound 89],C. felis membrane feeding (ingestion/blood feeding) activity EC80,[1]; [10],1 to 10 µM
same,EC50,[2]; [9],10 to 100 µM
CCn1cc(C(F)(F)F)cc2nc(-c3ncc(-c4cccc(C5CC5)n4)cc3S(=O)(=O)CC)cc1-2 [compound 113],mortality at 500 ppm,Plutella xylostella,100%
CCS(=O)(=O)c1cc(-c2ccc(C3(F)CC3)cc2)cnc1-c1nc2cc(C(F)(F)F)n(C3CC3)c(=O)c2n1C [compound 124],C. felis membrane feeding (ingestion/blood feeding) activity EC80,[1]; [10],1 to 10 µM
same,EC50,[2]; [9],10 to 100 µM
CCS(=O)(=O)c1cc(-c2ccc(C3(C#N)CC3)nc2)cnc1-c1nc2cc(C(F)(F)F)n(C3CC3)c(=O)c2n1C [compound 133],C. felis membrane feeding (ingestion/blood feeding) activity EC80,[1]; [10],1 to 10 µM
same,EC50,[2]; [9],10 to 100 µM
CCS(=O)(=O)c1cc(-c2ccc(C3CC3(F)F)cc2)cnc1-c1nc2cc(C(F)(F)C(F)(F)F)nnc2n1C (stereo not shown) [compound 135],C. felis membrane feeding (ingestion/blood feeding) activity EC80,[1]; [10],1 to 10 µM
same,EC50,[2]; [9],10 to 100 µM
CCS(=O)(=O)c1cc(-c2cc(C3CC3)nc(C)n2)cnc1-c1nc2cc(C(F)(F)C(F)(F)F)nnc2n1C [compound 142],C. felis membrane feeding (ingestion/blood feeding) activity EC80,[1]; [10],1 to 10 µM
same,EC50,[2]; [9],10 to 100 µM
CCS(=O)(=O)c1cc(-c2ccc(C3CC3)nn2)cnc1-c1nc2cc(C(F)(F)C(F)(F)F)cnc2n1C [compound 153],C. felis membrane feeding (ingestion/blood feeding) activity EC80,[1]; [10],1 to 10 µM
same,EC50,[2]; [9],10 to 100 µM
CCS(=O)(=O)c1cc(-c2nccc(C3CC3)n2)cnc1-c1nc2cc(C(F)(F)C(F)(F)F)cnc2n1C [compound 165],EC80,[1]; [8],<1 µM
same,EC50,[2]; [9],10 to 100 µM
CCS(=O)(=O)c1cc(-c2cc(C3CC3)nc(C)n2)cnc1-c1nc2cc(C(F)(F)C(F)(F)F)cnc2n1C [compound 166],EC80,[1]; [8],<1 µM
same,EC50,[2]; [9],10 to 100 µM
CCS(=O)(=O)c1cc(-c2cccnc2C2CC2)cnc1-c1nc2cc(C(F)(F)C(F)(F)F)cnc2n1C [compound 169],C. felis membrane feeding (ingestion/blood feeding) activity EC80,[1]; [10],1 to 10 µM
same,EC50,[2]; [9],10 to 100 µM
CCS(=O)(=O)c1cc(-c2ccc(C3CC3)nc2)cnc1-c1nc2cc(SC(F)(F)F)nnc2n1C [compound 186],EC80,[1]; [8],<1 µM
same,EC50,[2]; [9],< 10 µM
"CCn1c(=O)c(C(F)(F)F)cc2nc(-c3ncc(-c4ccc(C5CC5)cc4)cc3S(=O)(=O)CC)n(C)c21 [compound 214, 2-[5-(4-cyclopropylphenyl)-3-(ethanesulfonyl)pyridin-2-yl]-4-ethyl-3-methyl-6-(trifluoromethyl)-3H,4H,5H-imidazo[4,5-b]pyridin-5-one]",EC80,[1]; [6],< 1 µM
